The text below walks through data of patent US12268669B2, “Pharmaceutical compositions and methods comprising a combination of a benzoxazole transthyretin stabilizer and an additional therapeutic agent” (Pfizer Inc., priority 2018, dated 2025).

Experiment [1] relates to amyloidogenic light chains. As to conditions: cited from earlier work.
Experiment [2] relates to TTR tetramers (WT or V122I). Description: WT and V122I TTR fibril formation inhibition assay (turbidity at 350 nm, acidic conditions, 72 h). In kind it is biochemical. The following applies: WT or V122I TTR 3.6 μM; compound 3.6 and 7.2 μM; pH 4.4 or 4.5; 72 h (values only in FIG. 1 and 2). The protocol:
Inhibition of WT and V122I TTR fibril formation under acidic conditions after 72 h-a sufficient period for aggregation to go to completion in the vehicle control (See Hurshman, A. R., White, J. T., Powers, E. T., Kelly, J. W.; Transthyretin aggregation under partially denaturing conditions is a downhill polymerization. Biochemistry 2004, 43, 7365-7381). Purified TTR tetramers (WT or V122I at 3.6 μM) were mixed with DMSO (vehicle control), Fx-1005 (positive control, See Razavi H, et al. Benzoxazoles as transthyretin amyloid fibril inhibitors: synthesis, evaluation, and mechanism of action. Angew Chem Int Ed Engl 2003, 42, 2758-2761), Fx-1003 (positive control) or PTC124 at final concentrations of 3.6 and 7.2 μM, and incubated for 30 minutes at 25° C. After adjusting the pH to 4.4 or 4.5, samples were incubated at 37° C. for 72 h. The turbidity was then measured at 350 nm using a UV-vis spectrometer. All endpoint amyloid fibril formation yields (which are slightly different for WT and V122I) were normalized for each allele to amyloidogenesis in the absence of stabilizer, assigned to be 100% fibril formation. Therefore, 5% fibril formation corresponds to a compound inhibiting 95% of TTR fibril formation after 72 h (See Miroy, G. J., et al. Inhibiting transthyretin amyloid fibril formation via protein stabilization. Proc Natl Acad Sci USA 1996, 93, 15051-15056). […]

The structures appear in SMILES notation.

As for `O=C(O[C@@H]1Cc2c(O)cc(O)cc2O[C@@H]1c1cc(O)c(O)c(O)c1)c1cc(O)c(O)c(O)c1`, the “prevention of fibril formation” value in experiment [1] (amyloidogenic light chains) was “prevent fibril formation”. Further, the “binding to amyloidogenic light chains” value in experiment [1] was “bind to amyloidogenic light chains”.

Turning to `O=C(O)c1cccc(-c2noc(-c3ccccc3F)n2)c1` [Ataluren, 3-[5-(2-fluorophenyl)-1,2,4-oxadiazol-3-yl]benzoic acid], in experiment [2], the “inhibition of TTR fibril formation” value was “inhibit TTR fibril formation”.
